Key:
[1] = biological target: T1, PTPH1 (Homo sapiens, UniProt P26045); test: PTP inhibition assay (pNPP); format: biochemical
T1 sequence (P26045 1-913): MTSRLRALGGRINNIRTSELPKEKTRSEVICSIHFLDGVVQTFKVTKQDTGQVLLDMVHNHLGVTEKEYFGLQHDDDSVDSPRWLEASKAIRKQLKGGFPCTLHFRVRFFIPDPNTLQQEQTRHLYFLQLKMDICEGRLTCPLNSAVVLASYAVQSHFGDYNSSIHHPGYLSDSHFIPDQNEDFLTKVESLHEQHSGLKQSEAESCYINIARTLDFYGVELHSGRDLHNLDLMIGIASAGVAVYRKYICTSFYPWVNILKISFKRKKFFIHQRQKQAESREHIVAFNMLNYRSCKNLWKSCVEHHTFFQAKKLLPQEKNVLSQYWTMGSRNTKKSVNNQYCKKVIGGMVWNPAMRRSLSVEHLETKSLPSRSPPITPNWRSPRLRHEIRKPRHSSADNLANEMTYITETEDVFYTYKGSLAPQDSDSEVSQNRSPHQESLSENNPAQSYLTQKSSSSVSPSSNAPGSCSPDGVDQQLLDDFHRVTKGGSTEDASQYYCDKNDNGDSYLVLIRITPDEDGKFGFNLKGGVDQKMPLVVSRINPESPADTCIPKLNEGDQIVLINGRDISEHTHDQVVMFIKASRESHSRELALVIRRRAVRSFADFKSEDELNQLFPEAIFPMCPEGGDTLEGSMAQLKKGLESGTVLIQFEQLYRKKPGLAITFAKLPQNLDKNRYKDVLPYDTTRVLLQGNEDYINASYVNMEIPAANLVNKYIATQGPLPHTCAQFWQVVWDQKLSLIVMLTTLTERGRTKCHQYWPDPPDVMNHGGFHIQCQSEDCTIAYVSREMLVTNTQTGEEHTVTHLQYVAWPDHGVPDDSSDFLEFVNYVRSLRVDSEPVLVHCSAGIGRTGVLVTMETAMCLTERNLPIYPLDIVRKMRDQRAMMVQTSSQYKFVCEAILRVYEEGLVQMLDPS

[2] = Water solubility; format: physicochemical
[3] = biological target: T2, VHZ (Homo sapiens, UniProt Q9BVJ7); test: PTP inhibition assay (pNPP); format: biochemical
T2 sequence (Q9BVJ7 1-150): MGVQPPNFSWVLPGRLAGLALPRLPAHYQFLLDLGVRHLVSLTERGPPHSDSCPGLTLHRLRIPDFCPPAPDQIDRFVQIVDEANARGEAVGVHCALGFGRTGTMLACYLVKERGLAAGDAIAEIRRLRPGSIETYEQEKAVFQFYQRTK

[4] = system: mPTPB transfected Raw264.7 cells; test: IFN-γ induced Erk1/2 phosphorylation in transfected Raw264.7 macrophages; format: cell-based, mouse
Procedure: Raw264.7 mouse macrophages were cultured in Dulbecco's modified Eagle's medium (DMEM) supplemented with 10% FBS (Invitrogen), penicillin (50 units/mL), and streptomycin (50 μg/mL) under a humidified atmosphere containing 5% CO2 at 37° C. Transfected Raw264.7 cells (Vector, WT-mPTPB) were seeded in a 12-well plate at a density of 4×10^4 cells/well. The following day cells were treated with mPTPB inhibitor 11a for 1 hour, then stimulated with IFN-γ (200 U/ml) for 1 hour. Subsequently, the cells were washed with ice-cold phosphate buffered saline, and lysed with lysis buffer on ice for 30 minutes. Cell lysate was then cleared by centrifuging at 13,000 rpm for 15 minutes. The phosphorylation of ERK1/2 was detected by Western blotting.

[5] = system: M. tuberculosis (Erdman and H37Rv) in J774 macrophages; test: Macrophage assay: growth of M. tuberculosis in IFN-γ activated J774 macrophages; format: cell-based, Mycobacterium tuberculosis
[6] = system: M. tuberculosis H37Rv; test: Chronic TB infection in guinea pigs, adjunctive treatment with HRZ; format: in vivo, guinea pig; conditions: added to the standard regimen HRZ, after 6 weeks of treatment
[7] = Pharmacokinetics and bioavailability in guinea pigs; format: in vivo, guinea pig
Procedure: All drugs were suspended in 1% DMSO, 0.5% DEA, 48.5% PEG 400, and 50% water. Blood was collected for analysis of these drugs in plasma pre-dose and at 1, 4, 8, 24, and 48 h post-dose. Plasma was separated and stored at −70° C. until analysis. Plasma drug concentrations were determined by liquid chromatography-mass spectrometry and liquid chromatography-tandem mass spectrometry over the concentration range of 0.005-1 mg/L with dilution to 10 mg/L. Pharmacokinetic variables were calculated from individual drug concentration-time data using non-compartmental methods as implemented in WinNonlin version 5.0 (Pharsight, Mountain View, Calif.) as described earlier.

[8] = system: M. tuberculosis H37Rv; test: Microplate Alamar Blue assay (MABA) MIC; format: cell-based, Mycobacterium tuberculosis
[9] = system: M. tuberculosis Erdman; test: Microplate Alamar Blue assay (MABA) MIC; format: cell-based; conditions: Mycobacterium tuberculosis, minimum inhibitory concentration, read-out: In vitro anti-Mtb activity MABA-MIC Erdman
[10] = system: insulin signaling pathway in HepG2 cells (LMWPTP); test: Insulin signaling in HepG2 cells; format: cell-based; conditions: HepG2, 1 hour pretreatment, 5 nM insulin for 5 minutes
Procedure: To assess the effects of L335N15 in insulin signaling pathway, HepG2 cells were pretreated with L335N15 for 1 hour and were subsequently stimulated with 5 nM insulin for 5 minutes. […] Consistent with IR activation, downstream Akt phosphorylation (Ser473) was increased. […] Accordingly, LMWPTP inhibitors such as L335N15 described herein can be used to develop agents for the treatment of type 2 diabetes and insulin resistance.

O=C(CS(=O)(=O)O)Nc1ccc2nc(C(F)(F)F)[nH]c2c1
IC50 [1]: > 100 µM

O=C(C(c1ccccc1)S(=O)(=O)O)N1CCC(c2ccc(Cl)c(Cl)c2)CC1 (stereo not drawn) [Compound L319N47]
IC50 [1]: 30 µM
solubility [2]: > 10000 µg/mL
IC50 [3]: 80 µM

O=C(C(c1ccccc1)S(=O)(=O)O)N1CCC(Cc2ccccc2)CC1 (stereo not drawn) [Compound L319N46]
IC50 [1]: > 200 µM
solubility [2]: > 10000 µg/mL
IC50 [3]: > 200 µM

O=C(CS(=O)(=O)O)Nc1cnc2ccccc2c1
IC50 [1]: > 100 µM

O=C(C(c1ccccc1)S(=O)(=O)O)N1CCCC2CCCCC21 (stereo not drawn) [Compound L319N53]
Erk1/2 phosphorylation in mPTPB transfected Raw264.7 cells ([4]; 8 nM, 16 nM, and 32 nM): increased Erk1/2 phosphorylation
Erk1/2 phosphorylation in vector cells ([4]; vector Raw264.7 cells): no effect
IC50 [1]: > 200 µM
solubility [2]: > 10000 µg/mL
IC50 [3]: > 200 µM

O=C(Nc1nc2ccccc2s1)C(c1ccccc1)S(=O)(=O)O (stereo not drawn) [Compound L319N15]
IC50 [3]: > 200 µM

O=C(CS(=O)(=O)O)Nc1nc2ccc([N+](=O)[O-])cc2s1 [Compound L335N15-07]
IC50 [1]: > 100 µM

Cc1c(Br)cc(NC(=O)CS(=O)(=O)O)cc1Br
Anti-Mtb activity in infected macrophages ([5]; J774A.1 macrophages, low micromolar concentrations): markedly decrease bacterial load
IC90 ([5]; Mycobacterium tuberculosis, J774, IC90 in macrophages activated with interferon-γ, read-out: In vitro anti-Mtb activity, Mtb-infected macrophages (IC90)): 1.38 µM
Further reduction of mean lung CFU relative to HRZ [6]: 0.14 log10
Time plasma concentration 10-fold in excess of biochemical IC50 ([7]; guinea pig, in vivo, po): 12-14 hours
Tmax ([7]; guinea pig, plasma, po): 2.5 h
Oral bioavailability and half-life in guinea pigs ([7]; oral): good oral bioavailability and half-life
Activity in standard MIC assay [8]: devoid of activity
MIC ([8]; Mycobacterium tuberculosis, H37RV, minimum inhibitory concentration, read-out: In vitro anti-Mtb activity MABA-MIC H37Rv): > 10 µM
MIC [9]: > 10 µM

O=C(CS(=O)(=O)O)Nc1nc2ccccc2s1 [Compound L335N15]
IC50 [1]: > 100 µM
Akt phosphorylation (Ser473) [10]: increased
IR Tyr1162/1163 phosphorylation ([10]; relative to DMSO): enhanced IR Tyr1162/1163 phosphorylation in a dose-dependent fashion

O=C(Nc1cccc(OCc2ccccc2)c1)C(c1ccccc1)S(=O)(=O)O (stereo not drawn) [Compound L319M52]
IC50 [1]: > 200 µM
IC50 [3]: > 200 µM

O=C(Nc1ccc2nc(C(F)(F)F)[nH]c2c1)C(c1ccccc1)S(=O)(=O)O (stereo not drawn) [Compound L319M54]
IC50 [3]: > 200 µM
